Measured values from US20110098288A1, “SULFONAMIDES AS ZAP-70 INHIBITORS” (priority 2008, published 2011).
Counter-ions that a name gives are not always drawn.

Tests used:
[1] = target: T1, ZAP-70 (Homo sapiens, UniProt P43403); assay: ZAP-70 kinobeads assay; format: binding; settings: competition with immobilized aminopyrido-pyrimidine ligand 24 in cell lysate; ZAP-70 detected by dot blot
T1 construct: endogenous in cells; host or cells: cell lysate
T1 sequence (P43403 1-619): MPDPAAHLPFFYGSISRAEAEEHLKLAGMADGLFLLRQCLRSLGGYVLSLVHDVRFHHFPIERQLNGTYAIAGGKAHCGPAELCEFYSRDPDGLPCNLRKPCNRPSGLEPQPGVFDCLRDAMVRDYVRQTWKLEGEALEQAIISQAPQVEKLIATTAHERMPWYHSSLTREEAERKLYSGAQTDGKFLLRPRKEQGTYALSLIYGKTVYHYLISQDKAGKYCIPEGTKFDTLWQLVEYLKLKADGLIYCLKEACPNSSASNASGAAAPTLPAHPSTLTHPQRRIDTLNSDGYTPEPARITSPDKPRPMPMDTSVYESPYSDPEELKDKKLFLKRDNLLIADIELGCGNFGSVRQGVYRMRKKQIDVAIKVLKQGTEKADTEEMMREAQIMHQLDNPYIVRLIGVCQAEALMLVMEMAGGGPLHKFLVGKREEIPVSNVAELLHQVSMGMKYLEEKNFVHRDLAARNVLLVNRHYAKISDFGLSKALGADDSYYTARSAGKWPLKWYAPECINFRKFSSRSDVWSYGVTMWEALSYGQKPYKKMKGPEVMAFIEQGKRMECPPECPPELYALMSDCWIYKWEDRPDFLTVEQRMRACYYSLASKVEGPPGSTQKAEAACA
Method in brief: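 Cell lysate aliquots incubated with test compounds at various concentrations plus affinity beads carrying immobilized aminopyrido-pyrimidine ligand 24. Bead-captured proteins eluted; ZAP-70 quantified by specific antibody dot blot with infrared detection.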

[2] = system: Jurkat cells; assay: Calcium release assay (Fluo-4 flow cytometry after anti-CD3 stimulation); format: cell-based; settings: Homo sapiens, Jurkat cell line J77, anti-CD3 activation, read-out: IC50 (Calcium ion release in cells)
Description: Compounds of the present invention were tested in a Calcium release assay as described below.
The development of fluorescent probes makes it possible to measure the concentration of intracellular free Calcium ions in single living cells. Cells are first loaded with a cell-permeable Ca^2+-sensitive dye, then the test compound is added. Finally, cells are activated through the T cell receptor with an anti-CD3 antibody shortly before data acquisition on the flow cytometer. The release of Ca^2+ is measured as a function of time after cell stimulation. This protocol describes the flow cytometry method using the Fluo-3 and Fluo-4 dyes (Minta et al., 1989, J. Biol. Chem. 264(14):8171-8178) to measure the intracellular Ca^2+ concentration in Jurkat cells (see also June et al., 1997, Measurement of intracellular calcium ions by flow cytometry. In: Current Protocols in Cytometry (1997) Unit 9.8.1-9.8.19, John Wiley & Sons, Inc.).
In general, cells should be handled in the shortest time possible to assure their stability. Therefore the preparation of all materials in advance is highly recommended as well as using any incubation or centrifugation time to prepare the next steps (e.g. preparing compound dilution or starting the flow cytometer).
1) Prepare a work plan indicating the number of samples to be analyzed including controls. 2) Cell harvest: Centrifuge 50 to 100 ml of a Jurkat cell culture for 5 minutes at 1100 rpm. Discard the supernatant, pool the resuspended cell pellets in a single 50 ml Falcon tube, and fill up to 50 ml with PBS—CaCl2 (without FCS). Centrifuge again sample again. 3) Resuspend cell pellet with PBS—CaCl2 (without FCS) to achieve a concentration not lower than 10×10^6 cells/ml. Prepare an adequate dilution to evaluate the cell concentration and count the cells. 4) Separate the volume of cells needed to be loaded (for example […] for 20 samples) in a 50 ml Falcon tube. Fill up with PBS—CaCl2 to 900 μl for 107 cells. 5) Prepare in the dark a 1:1 mix of FLUO-4 (1 mM)+Pluronic F-127 (20%). 5 μl of Fluo-4 are needed per 107 cells. 6) Prepare a 1/10 dilution of this mix with PBS—CaCl2 (in the dark; for example 5 μl Fluo-4+5 μl F-127 completed to 100 μl). 7) Add the dye solution to the cells. […] 8) Incubate the sample for 30 minutes in a cell incubator (37° C., 5% CO2). Mix from time to time. 9) During this time prepare the adequate test compound dilution in PBS—CaCl2 (with 10% FCS). The solution should be 10 times more concentrated than the desired final concentration. Vortex each dilution. Prepare also the antibody dilutions: anti-CD3 (1/200) and GAM (1/25). 10) Label FACS tubes and distribute in the corresponding tube 30 μl of the compound dilution or only buffer for the control tubes. 11) After 30 minutes of incubation wash the cells twice in PBS—CaCl2 (with 10% FCS). During the washing steps make sure that the flow cytometer is already “ON” in order to warm the laser. 12) Resuspend the cell pellet in PBS—CaCl2 (with 10% FCS) at a concentration of 1.5×10^6 cells/ml. 13) Distribute 300 μl of cell suspension into the FACS tubes and mix gently. The compound incubation is starting. Keep samples at room temperature in the dark. 14) Open the settings of the cytometer. It is advised to have a template ready which is used for all measurements. Settings of the machine should also be the same from one experiment to the other which permits to evaluate the reproducibility of the cell preparation. 15) In Setup modus control your cell preparation on the cytometer. Cells should fit in the pre-defined gates. 16) During the compound incubation time, check also that cells are responding to the anti-CD3 activation as expected. Set a timer at 8 sec. Add 6 μl of anti-CD3 dilution (0.2 μg/ml final) and mix gently. Add 1 μl of GAM dilution (0.75 μg/ml final) and mix gently. Incubate the samples in water bath at 37° C. while starting timer. After 8 seconds of incubation, acquire data at medium speed for 200 seconds. […]

IC50 [1] | IC50 [2] | Structure (SMILES)
< 100 nM | < 100 nM | CN1CCN(CCCOc2cccc(Nc3ncc(Cl)c(Nc4ccccc4NS(C)(=O)=O)n3)c2)CC1 [Example 135]
100 to 1000 nM | 100 to 1000 nM | COc1cc(Nc2ncc(F)c(Nc3cccc(Cl)c3NS(C)(=O)=O)n2)cc(OC)c1OC [Example 184, N-(2-chloro-6-(5-fluoro-2-(3,4,5-trimethoxyphenylamino)pyrimidin-4-ylamino)phenyl)methanesulfonamide]
< 100 nM | < 100 nM | COc1ccc(Nc2nc(Nc3cc(OC)c(OC)c(OC)c3)ncc2Cl)c(NS(C)(=O)=O)c1 [Example 152, N-(2-(5-chloro-2-(3,4,5-trimethoxyphenylamino)pyrimidin-4-ylamino)-5-methoxyphenyl)methanesulfonamide]
< 100 nM | < 100 nM | CN1CCCC(COc2cccc(Nc3ncc(Cl)c(Nc4ccccc4NS(C)(=O)=O)n3)c2)C1 (stereo not drawn) [Example 146, N-(2-(5-chloro-2-(3-((1-methylpiperidin-3-yl)methoxy)phenylamino)pyrimidin-4-ylamino)phenyl)methanesulfonamide]
100 to 1000 nM | 100 to 1000 nM | CS(=O)(=O)Nc1ccccc1Nc1nc(Nc2ccc(OCCCN3CCCCC3)cc2)ncc1F [Example 90]
< 100 nM | 100 to 1000 nM | COc1cc(Nc2ncc(F)c(Nc3cccc(C)c3NS(C)(=O)=O)n2)cc(OC(C)C)c1OC [Example 118, N-(2-(5-fluoro-2-(3-isopropoxy-4,5-dimethoxyphenylamino)pyrimidin-4-ylamino)-6-methylphenyl)methanesulfonamide]
100 to 1000 nM | < 100 nM | COc1cc(Nc2nccc(Nc3cccc(C)c3NS(C)(=O)=O)n2)cc(OC)c1OC [Example 176, N-(2-methyl-6-(2-(3,4,5-trimethoxyphenylamino)pyrimidin-4-ylamino)phenyl)methanesulfonamide]
100 to 1000 nM | 100 to 1000 nM | Cc1cc(C)cc(Nc2ncc(F)c(Nc3ccccc3NS(C)(=O)=O)n2)c1 [Example 3, N-(2-(2-(3,5-dimethylphenylamino)-5-fluoropyrimidin-4-ylamino)phenyl)methanesulfonamide]
100 to 1000 nM | 100 to 1000 nM | CS(=O)(=O)Nc1ccccc1Nc1nc(Nc2ccc(NCCN3CCCC3)cc2)ncc1F [Example 93, N-(2-(5-fluoro-2-(4-(2-pyrrolidin-1-yl)ethylamino)phenylamino)pyrimidin-4-ylamino)phenyl)methanesulfonamide formate]
< 100 nM | < 100 nM | CCN(CC)CCOc1cccc(Nc2ncc(Cl)c(Nc3ccccc3NS(C)(=O)=O)n2)c1 [Example 126, N-(2-(5-chloro-2-(3-(2-(diethylamino)ethoxy)phenylamino)pyrimidin-4-ylamino)phenyl)methanesulfonamide]
100 to 1000 nM | 100 to 1000 nM | CN1C(=O)COc2cc(Nc3ncc(F)c(Nc4ccccc4NS(C)(=O)=O)n3)ccc21 [Example 25, N-(2-(5-fluoro-2-(4-methyl-3-oxo-3,4-dihydro-2H-benzo[b][1,4]oxazin-7-ylamino)pyrimidin-4-ylamino)phenyl)methanesulfonamide]
100 to 1000 nM | < 100 nM | COc1cc(Nc2ncc(Br)c(Nc3ccccc3NS(C)(=O)=O)n2)cc(OC)c1 [Example 105, N-(2-(5-bromo-2-(3,5-dimethoxyphenylamino)pyrimidin-4-ylamino)phenyl)methanesulfonamide]
< 100 nM | 100 to 1000 nM | CN1CCCCC1COc1cccc(Nc2ncc(Cl)c(Nc3ccccc3NS(C)(=O)=O)n2)c1 (stereo not drawn) [Example 145, N-(2-(5-chloro-2-(3-((1-methylpiperidin-2-yl)methoxy)phenylamino)pyrimidin-4-ylamino)phenyl)methanesulfonamide]
100 to 1000 nM | 100 to 1000 nM | COc1cc(Nc2nccc(Nc3ccccc3NS(C)(=O)=O)n2)cc(OC)c1OC [Example 69, N-(2-(2-(3,4,5-trimethoxyphenylamino)pyrimidin-4-ylamino)phenyl)methanesulfonamide]
100 to 1000 nM | < 100 nM | CN1CCCCC1COc1cccc(Nc2ncc(F)c(Nc3ccccc3NS(C)(=O)=O)n2)c1 (stereo not drawn) [Example 97, N-(2-(5-fluoro-2-(3-((1-methylpiperidin-2-yl)methoxy)phenylamino)pyrimidin-4-ylamino)phenyl)methanesulfonamide]
100 to 1000 nM | 100 to 1000 nM | CN1CCN(CCOc2ccc(Nc3ncc(F)c(Nc4ccccc4NS(C)(=O)=O)n3)cc2)CC1 [Example 89, N-(2-(5-Fluoro-2-(4-(2-(4-methylpiperazin-1-yl)ethoxy)phenylamino)pyrimidin-4-ylamino)phenyl)methanesulfonamide]
100 to 1000 nM | 100 to 1000 nM | CCOc1ccc(Nc2nc(Nc3cc(OC)c(OC)c(OC)c3)ncc2F)c(NS(C)(=O)=O)c1C [Example 168, N-(3-ethoxy-6-(5-fluoro-2-(3,4,5-trimethoxyphenylamino)pyrimidin-4-ylamino)-2-methylphenyl)methanesulfonamide]
< 100 nM | 100 to 1000 nM | COc1cc(Nc2ncc(Br)c(Nc3ccccc3NS(C)(=O)=O)n2)cc(OC)c1OC [Example 70, N-(2-(5-bromo-2-(3,4,5-trimethoxyphenylamino)pyrimidin-4-ylamino)phenyl)methanesulfonamide]
100 to 1000 nM | 100 to 1000 nM | COc1ccc(Nc2ncc(F)c(Nc3ccccc3NS(C)(=O)=O)n2)cc1OC [Example 36, N-(2-(2-(3,4-dimethoxyphenylamino)-5-fluoropyrimidin-4-ylamino)phenyl)methanesulfonamide]
100 to 1000 nM | 100 to 1000 nM | COc1cc(Nc2ncc(F)c(Nc3cccc(C(C)C)c3NS(C)(=O)=O)n2)cc(OC)c1OC [Example 161, N-(2-(5-fluoro-2-(3,4,5-trimethoxyphenylamino)pyrimidin-4-ylamino)-6-isopropylphenyl)methanesulfonamide]
< 100 nM | < 100 nM | CS(=O)(=O)Nc1ccccc1Nc1nc(Nc2cccc(OCCN3CCCCC3)c2)ncc1Cl [Example 124, N-(2-(5-chloro-2-(3-(2-(piperidin-1-yl)ethoxy)phenylamino)pyrimidin-4-ylamino)phenyl)methanesulfonamide]
